Measurements published in ChEMBL document CHEMBL1201862, “PubChem BioAssay data set” (2004).
Values joined by “and” are separate entries in the source; they are usually repeats but may differ in a detail not shown here. Identical values can stand only once.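 Step 1: Grow cells in 96-well plates. Step 2: Expose to compound for 48 hours at 5 concentrations. Step 3: Interpolate endpoints linearly; if unreached, use highest concentration. GI50 marks 50% less growth.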 Active and inactive are the calls of the source. Rule as the data show it: active = GI50 up to about 1.1 µM and inactive = higher.

Experiments:
Assay in all cases: DTP human tumour cell line panel, 48 h
BT-549 = system: BT-549
HOP-92 = system: HOP-92
K562 = system: K562
NCI-H460 = system: NCI-H460
SK-OV-3 = system: SK-OV-3
SNB-75 = system: SNB-75
COLO 205 = system: COLO 205
UO-31 = system: UO-31
IGROV-1 = system: IGROV-1
SF-295 = system: SF-295
MCF7 = system: MCF7
SF-268 = system: SF-268
OVCAR-5 = system: OVCAR-5
RXF 393 = system: RXF 393
NCI-H226 = system: NCI-H226
786-0 = system: 786-0
RPMI-8226 = system: RPMI-8226
SNB-19 = system: SNB-19
OVCAR-4 = system: OVCAR-4
SR = system: SR

SMILES | GI50 (BT-549) | GI50 (HOP-92) | GI50 (K562) | GI50 (NCI-H460) | GI50 (SK-OV-3) | GI50 (SNB-75) | GI50 (COLO 205) | GI50 (UO-31) | GI50 (IGROV-1) | GI50 (SF-295) | GI50 (MCF7) | GI50 (SF-268) | GI50 (OVCAR-5) | GI50 (RXF 393) | GI50 (NCI-H226) | GI50 (786-0) | GI50 (RPMI-8226) | GI50 (SNB-19) | GI50 (OVCAR-4) | GI50 (SR)
CCc1ncc(CO)n1Cc1cccc2ccccc12 | > 100 µM (inactive) | 86.1 µM (inactive) | > 100 µM (inactive) | > 100 µM (inactive) | > 100 µM (inactive) | 31.3 µM (inactive) | > 100 µM (inactive) | > 100 µM (inactive) | > 100 µM (inactive) | 53.1 µM (inactive) | > 100 µM (inactive) | > 100 µM (inactive) | > 100 µM (inactive) | > 100 µM (inactive) | > 100 µM (inactive) | > 100 µM (inactive) | 73.3 µM (inactive) | > 100 µM (inactive) | > 100 µM (inactive) | –
CC(=O)c1sc2c(c1OC(=O)c1ccc(Cl)cc1)c(=O)n(-c1ccccc1)c(=S)n2-c1ccccc1 | – | 3.25 µM (inactive) | 9.04 µM (inactive) | 4.86 µM (inactive) | 1.21 µM (inactive) | 2.99 µM (inactive) | 3.53 µM (inactive) | 3.06 µM (inactive) | 8.89 µM (inactive) | 0.953 µM (active) | 23.2 µM (inactive) | 4.56 µM (inactive) | 2.77 µM (inactive) | 2.22 µM (inactive) | 1.59 µM (inactive) | 3.52 µM (inactive) | 1.21 µM (inactive) | 3.56 µM (inactive) | 22.3 µM (inactive) | 3.88 µM (inactive)
CCN1C(=O)CS/C1=N\NC(=O)CSc1nc2ccccc2c(=O)n1CC | > 100 µM (inactive) | – | > 100 µM (inactive) | 10.3 µM (inactive) | > 100 µM (inactive) | > 100 µM (inactive) | > 100 µM (inactive) | > 100 µM (inactive) | > 100 µM (inactive) | > 100 µM (inactive) | > 100 µM (inactive) | > 100 µM (inactive) | > 100 µM (inactive) | 65.9 µM (inactive) | > 100 µM (inactive) | > 100 µM (inactive) | > 100 µM (inactive) | > 100 µM (inactive) | > 100 µM (inactive) | > 100 µM (inactive)
CCOC(=O)C1=C(C)NC(C)=C(C(=O)OCC)C1c1ccc(C)cc1 | 52.8 µM (inactive) | 13.1 µM (inactive) | 31 µM (inactive) | 22.9 µM (inactive) | 57 µM (inactive) | 24.8 µM (inactive) | > 10 µM (inactive) | 51.1 µM (inactive) | 27 µM (inactive) | 27.4 µM (inactive) | 11.2 µM (inactive) | 51.1 µM (inactive) | 41.6 µM (inactive) | 29.1 µM (inactive) | 35 µM (inactive) | 20 µM (inactive) | 30.3 µM (inactive) | 63.1 µM (inactive) | 54.3 µM (inactive) | –
N#CCC(=O)N/N=C\C(O)C(O)C(O)C(O)CO (configuration not stated) | > 100 µM (inactive) | – | > 100 µM (inactive) | > 100 µM (inactive) | > 100 µM (inactive) | > 100 µM (inactive) | – | > 100 µM (inactive) | > 100 µM (inactive) | > 100 µM (inactive) | > 100 µM (inactive) | > 100 µM (inactive) | > 100 µM (inactive) | > 100 µM (inactive) | > 100 µM (inactive) | > 100 µM (inactive) | > 100 µM (inactive) | > 100 µM (inactive) | – | > 100 µM (inactive)
Nc1nc(Cl)cc(NCC2(CO)CCC(CCc3ccccc3)C2)n1 (configuration not stated) | 14 µM (inactive) | 15.5 µM (inactive) | 0.962 µM (active) | 12 µM (inactive) | 17.5 µM (inactive) | 20.8 µM (inactive) | 12.8 µM (inactive) | 18 µM (inactive) | 17.5 µM (inactive) | 0.687 µM (active) | 11.7 µM (inactive) | 16.6 µM (inactive) | 14.5 µM (inactive) | 14.8 µM (inactive) | 16.5 µM (inactive) | 15.7 µM (inactive) | 2.86 µM (inactive) | 15.9 µM (inactive) | 11.9 µM (inactive) | –
O=C(/C=C\Nc1ccccc1O)C(Cl)(Cl)Cl | 52.2 µM (inactive) | 70.5 µM (inactive) | 36.7 µM (inactive) | 53.7 µM (inactive) | 53.2 µM (inactive) | 30.3 µM (inactive) | 48.3 µM (inactive) | 25.1 µM (inactive) | 43.4 µM (inactive) | 3.87 µM (inactive) | 20.8 µM (inactive) | > 100 µM (inactive) | 77.4 µM (inactive) | 33.5 µM (inactive) | > 100 µM (inactive) | 22.8 µM (inactive) | 25.3 µM (inactive) | 76.2 µM (inactive) | 39.1 µM (inactive) | –
O=C(c1ccco1)N(C(=O)N1CCCCC1)c1ccccc1 | > 100 µM (inactive) | – | > 100 µM (inactive) | – | > 100 µM (inactive) | – | > 100 µM (inactive) | > 100 µM (inactive) | > 100 µM (inactive) | – | > 100 µM (inactive) | > 100 µM (inactive) | > 100 µM (inactive) | 87.9 µM (inactive) | > 100 µM (inactive) | > 100 µM (inactive) | > 100 µM (inactive) | > 100 µM (inactive) | – | –
COC(=O)c1cc(C)ccc1C1CN=NC12Cc1ccc(C)cc1C2=O (configuration not stated) | 30.1 µM (inactive) | 19.1 µM (inactive) | 19.4 µM (inactive) | 34.1 µM (inactive) | 38.1 µM (inactive) | 30.3 µM (inactive) | 15.8 µM (inactive) | 27.7 µM (inactive) | 63.4 µM (inactive) | 38 µM (inactive) | 29.9 µM (inactive) | 32.7 µM (inactive) | > 100 µM (inactive) | 59.6 µM (inactive) | 24.8 µM (inactive) | > 100 µM (inactive) | – | 55.2 µM (inactive) | 20 µM (inactive) | –
CN(C)CCOC1(Cc2ccc(F)cc2)CCC(C(C)(C)C)CC1 (configuration not stated) | – | 12.2 µM (inactive) | 2.03 µM (inactive) and 2.19 µM (inactive) | 3.27 µM (inactive) and 2.23 µM (inactive) | 14 µM (inactive) and 15.2 µM (inactive) | – | 2.03 µM (inactive) and 2.15 µM (inactive) | 6.12 µM (inactive) and 4.81 µM (inactive) | 11.1 µM (inactive) and 11.5 µM (inactive) | 5.75 µM (inactive) and 6.38 µM (inactive) | 6.04 µM (inactive) and 5.24 µM (inactive) | 12.4 µM (inactive) and 12.9 µM (inactive) | 7.59 µM (inactive) and 7.85 µM (inactive) | 0.857 µM (active) | 9.38 µM (inactive) and 10.5 µM (inactive) | 4.92 µM (inactive) and 4.2 µM (inactive) | 2.3 µM (inactive) and 2.48 µM (inactive) | 7.31 µM (inactive) and 11.9 µM (inactive) | – | 2.63 µM (inactive) and 2.29 µM (inactive)
c1csc(-c2nccc3c2[nH]c2ccccc23)c1 | – | 22.3 µM (inactive) | 25.6 µM (inactive) | 23.9 µM (inactive) | 14.2 µM (inactive) | 14.1 µM (inactive) | 14.8 µM (inactive) | – | 18.4 µM (inactive) | 16.1 µM (inactive) | 3.35 µM (inactive) | 27 µM (inactive) | 28.2 µM (inactive) | 16.3 µM (inactive) | 12 µM (inactive) | 18.1 µM (inactive) | – | 27.7 µM (inactive) | 18.2 µM (inactive) | 21 µM (inactive)
